Measurements published in patent US11358961B2, “Anti-HCMV compositions and methods” (Evrys Bio, LLC, priority 2014, dated 2022).

The molecules below were run on human cytomegalovirus (HCMV) (assay: Antiviral activity against HCMV in vitro (virus yield / replication assay, IE protein readout)). Conditions: Human betaherpesvirus 5, 96 h, read-out: HCMV IC50.
Assay type: cell-based
Description: Assessing Antiviral Activity Against Human Cytomegalovirus (HCMV)
To assess their antiviral activity, some compounds were tested against human cytomegalovirus (HCMV) in vitro. Human MRCS cells were grown in Dulbecco's Modified Eagle Medium (DMEM) supplemented with 10% fetal bovine serum (FBS) and infected with an HCMV variant expressing GFP tagged pUL99 (the product of late viral UL99 gene) at a multiplicity of 1 infectious unit (IU) per cell. One hour later, medium of the cells was replaced with fresh medium containing the indicated compounds at 50, 25, 12.5, 6.25, 3.13, 1.56, 0.78, 0.39 μM or the carrier in which the compounds are dissolved (DMSO). Final concentration of DMSO was 0.5% in each treatment. Virus yield in the culture supernatant was determined at 96 hours after infection by infecting fresh MRCS cells and assaying viral IE1 protein expression. Results were plotted using either Prism Software or CDD Vault (CDD Vault was developed by Collaborative Drug Discovery, Inc., 1633 Bayshore Hwy, Suite 342, Burlingame, Calif. 94010) in order to calculate IC50s.
Alternatively, antiviral efficacy of some compounds was assessed by inhibition of HCMV replication during in vitro replication assays. Briefly, confluent monolayers of MRCS fibroblasts in a 96 well plate format (˜1.0×10^4 cells/well) were infected with an AD169 strain of HCMV for one hour. After the initial incubation hour, virus containing media was removed and 100 ul of media with sequential dilutions of FORGE compounds added to each well. The concentrations of the FORGE compounds were 50 μM, 25 μM, 12.5 μM, 6.25 μM, 3.125 μM, 1.56 μM, and 0.78125 μM as well as a vehicle control (0.5% DMSO). The concentration of DMSO was constant between all conditions. Assays were performed in duplicate. Infected plates were returned to the incubator and the viral infection was allowed to progress for four days. On the fourth day, 50 μL of cell free supernatant was collected from each well and used to infect a new 96 well plate seeded with a confluent monolayer of MRCS fibroblasts along with 50 μL of media to bring the total volume to 100 μL. The next day the media was removed and the infected monolayer was fixed with cold methanol, and Immediate Early proteins were detected by immunofluorescence assays to quantify the number of cells that were infected with HCMV. IE gene expression was quantified within five random fields within each well and corresponding numbers were utilized to determine viral replication. Results from each well were normalized to the vehicle control well so as to allow a percent reduction from no drug treatment to be calculated. Results were plotted using either Prism Software or CDD Vault in order to calculate IC50s.

Row | SMILES | IC50
1 | COC(c1cccc(-n2cccn2)c1)c1cnc(N2CCc3ccc(C(N)=O)cc3C2)s1 (centres unmarked) [Example SBX087] | 1.4 µM
2 | CC(c1ccc2nccnc2c1)c1cnc(N2CCC(Cc3ccccc3)CC2)s1 (centres unmarked) [Example 11] | > 25 µM
3 | c1cc(Cc2cnc(N3CCc4ccccc4C3)s2)cc(-n2cccn2)c1 [Example 20] | 8.9 µM
4 | C=C(c1cccc(-n2cccn2)c1)c1cnc(N2CCc3ccccc3C2)s1 [Example 19] | 7 µM
5 | CC(Nc1ncc(Cc2cccc(-n3cccn3)c2)s1)c1ccccc1 (centres unmarked) [Example 34] | > 50 µM
6 | CC(O)(c1ccc2nccnc2c1)c1cnc(N2CCc3ccccc3C2)s1 (centres unmarked) [Example 2] | 24 µM
7 | c1ccc2c(c1)CCN(c1ncc(Cc3ccc4nccnc4c3)s1)C2 [Example 4] | 5.6 µM
8 | CC(c1cnc(N2CCc3ccccc3C2)s1)c1c[nH]c2ccccc12 (centres unmarked) [Example 9] | 12.7 µM
9 | c1ccc2c(c1)CCCN2c1ncc(Cc2ccc(-n3cccn3)cc2)s1 [Example 23] | > 50 µM
10 | c1cnn(-c2ccc(Cc3cnc(N4CCC5OCCCC5C4)s3)cc2)c1 (centres unmarked) [Example 25] | 11 µM
11 | N#Cc1ccc2c(c1)CN(c1ncc(Cc3cccc(-n4cccn4)c3)s1)CC2 [Example 36] | 3.3 µM
12 | CC(c1cccc(-n2ccnc2)c1)c1cnc(N2CCc3ccc(C#N)cc3C2)s1 (centres unmarked) [Example SBX080] | 4.9 µM
13 | c1ccc(CNc2ncc(Cc3ccc(-n4cccn4)cc3)s2)cc1 [Example 21] | > 50 µM
14 | c1cc(Cc2cnc(N3CCCc4ccccc43)s2)cc(-n2cccn2)c1 [Example 31] | > 50 µM
15 | CC(c1cccc(-n2cccn2)c1)c1cnc(N2CCc3ccc(C#N)cc3C2)s1 (centres unmarked) [Example SBX082] | 7.3 µM
16 | CC(c1ccccc1)c1cnc(N2CCc3ccccc3C2)s1 (centres unmarked) [Example 7] | > 50 µM
17 | C=C(c1ccc2nccnc2c1)c1cnc(N2CCc3ccccc3C2)s1 [Example 3] | > 50 µM
18 | CC(c1ccc(N2CCCCC2)cc1)c1cnc(N2CCc3ccccc3C2)s1 (centres unmarked) [Example 15] | > 25 µM
19 | CC(C)c1ccc(CNc2ncc(Cc3ccc(-n4cccn4)cc3)s2)cc1 [Example 24] | > 50 µM
20 | CC(O)(c1ccc2nccnc2c1)c1cnc(-c2cnc(Cl)s2)s1 (centres unmarked) [Example 1] | 21.4 µM
21 | CC(C)OC1CN(c2ncc(Cc3ccc(-n4cccn4)cc3)s2)C1 [Example 22] | > 50 µM

Row | SMILES | IC50
22 | CC(c1ccc(-c2ncccn2)cc1)c1cnc(N2CCc3ccccc3C2)s1 (centres unmarked) [Example 17] | 4.2 µM
23 | CC(C)OC1CN(c2ncc(Cc3cccc(-n4cccn4)c3)s2)C1 [Example 30] | 12 µM
24 | CC(c1cccc(-n2cccn2)c1)c1cnc(N2CCc3ccc(C(N)=O)cc3C2)s1 (centres unmarked) [Example SBX088] | 1.6 µM
25 | CC(c1cccc(-n2cccn2)c1)c1cnc(N2CCc3ccccc3C2)s1 (centres unmarked) [Example 18] | 1.6 µM
26 | c1cc(Cc2cnc(N3CCOCC3)s2)cc(-n2cccn2)c1 [Example 35] | > 27 µM
27 | c1cc(Cc2cnc(N3CCC4OCCCC4C3)s2)cc(-n2cccn2)c1 (centres unmarked) [Example 33] | 11.5 µM
28 | c1ccc(CNc2ncc(Cc3cccc(-n4cccn4)c3)s2)cc1 [Example 29] | > 50 µM
29 | CC(c1ccc2nccnc2c1)c1cnc(N2CCC(c3ccccc3)C2)s1 (centres unmarked) [Example 10] | > 25 µM
30 | c1cnn(-c2ccc(Cc3cnc(N4CCOCC4)s3)cc2)c1 [Example 27] | 10.3 µM
31 | CC(c1cccnc1)c1cnc(N2CCc3ccccc3C2)s1 (centres unmarked) [Example 8] | 16.4 µM
32 | O=C(c1ccc2nccnc2c1)c1cnc(N2CCc3ccccc3C2)s1 [Example 5] | > 50 µM
33 | C=C(c1ccc(-n2cccn2)cc1)c1cnc(N2CCc3ccccc3C2)s1 [Example 14] | 28.7 µM
34 | c1ccc2c(c1)CCN(c1ncc(Cc3ccc(-n4cccn4)cc3)s1)C2 [Example 16] | 12.5 µM
35 | OC(c1ccc2nccnc2c1)c1cnc(N2CCc3ccccc3C2)s1 (centres unmarked) [Example 6] | 5.1 µM
36 | C=C(c1ccc2nccnc2c1)c1cnc(NCc2ccccc2)s1 [Example 12] | > 50 µM
37 | CC(c1ccc(-n2cccn2)cc1)c1cnc(N2CCc3ccccc3C2)s1 (centres unmarked) [Example 13] | 3.6 µM
38 | N#Cc1ccc2c(c1)CN(c1ncc(Cc3ccc(-n4cccn4)cc3)s1)CC2 [Example 28] | 9.7 µM
39 | CC(C)c1ccc(CNc2ncc(Cc3cccc(-n4cccn4)c3)s2)cc1 [Example 32] | > 50 µM
40 | CC(c1cccc(-n2cccn2)c1)c1cnc(N2CCc3ccc(Br)cc3C2)s1 (centres unmarked) [Example SBX084] | 3.8 µM
41 | CC(Nc1ncc(Cc2ccc(-n3cccn3)cc2)s1)c1ccccc1 (centres unmarked) [Example 26] | > 50 µM
